According to patent publication US6087336A, “Peptide derivatives useful in treating autoimmune diseases” (Zeneca Limited, priority 1996, dated 2000):

Legend:
[1] = type: physicochemical
Procedure: Typical procedures for measuring the level of degradation of a peptide of the present invention are as follows:
Prenaration of extruded polymer depot formulation of peptide
About 20 mg of peptide is accurately weighed and sufficient polymer (50/50% molar poly(D,L-lactic acid/glycolic acid) copolymer of approximate weight average molecular weight 20kD and approximate polydispersity of 1.7 as determined by size exclusion chromatography relative to polystyrene standards) added to produce an approximate 20% w/w mixture. This is dissolved in […] glacial acetic acid to produce an approximate 10% w/v solution. The solution is freeze dried and the resulting freeze dried product is stored under vacii, prior to use.
About 100 mg of freeze dried material is loaded into the barrel of a small laboratory extruder and the plunger pushed down to consolidate the sample. The extruder is heated to between 90 and 95° C. and held at this temperature for 10 minutes before the freeze dried material is extruded under presure to give a cylindrical extrudate of approximately 1 mm in diameter.
Analysis of peptide content of extruded polymer depot formulation of peptide
Two approximate 5 mm lengths of extruded polymer depot containing peptide are accurately weogjed amd eacj dosspved 1 ml of anhydride-free glacial acetic acid in separate 25 ml bolumertic flasks. After about 1.5 hours the volume of each is made up to 25 ml with distilled water, causing the polymer to precipitate. The solids are filtered off using a 0.5 μm Millex PTFE filter and the solutions, A, collected. […]
Each standard is filtered through a 5 μm Millex PTFE filter and an aliquot of filtrate, together with aliquots of the solutions A, analysed by HPLC using duplicate sample injections. The peptide content of the extruded polymer depot formulation of peptide is calculated from the concentration of peptide in solutions A, which is determined by comparing the area of the peptide peak in solutions A with the area of the peptide peak from the standard solutions.

HLA-DR4Dw4 = target: T1, HLA-DR4Dw4 (Homo sapiens, UniProt P01903+P01911, A100K/A169T/F76Y/I96L/K127E/L162R/M171V/N62H/P40V/Q125Y/R42H/S133A/S149N/S66Y/V115G/V209L/W38E); test: Test A: purified HLA-DR peptide in vitro binding assay; conditions: purified HLA-DR4Dw4, biotin-FHA307-320
T1 construct: a cDNA encoding the β chain is cloned into the transfer vector pAcUW1; made in house; host or cells: Sf21 insect cells, double-recombinant baculovirus
Procedure: Test A: Purified HLA-DR peptide in vitro binding assay. […]. At the end of the incubation period 100 μl of the incubate is transferred to Enzyme Linked lmmunoSorbant Assay (ELISA) plates (Nunc) previously coated with an anti-MHC antibody (L243--American Type Culture Collection (ATCC) HB55 --as described in Lampson and Levy (1980) J. Immunol. 125, 293-299) at a concentration of 10 μg/ml for 1 hour at room temperature and blocked thereafter for 1 hour with 1% bovine serum albumin (BSA) in PBS and 0.05% Tween 20. After a further 1 hour period the unbound peptide is washed away and a 1/4,000 dilution of streptavidin peroxidase (Sigma) in PBS with 0.01% of a suitable detergent such as NP40 (Sigma) added for 2 hours at room temperature. After further washing, tetramethylbenzidene (TMB) substrate solution (1 TMB tablet (Sigma) in 10 mIs of 0.1 M citrate/acetate buffer, pH 6.0 with 36 μl urea hydrogen peroxide (UHPO) (Fluka)) is added to each of the plates. The reaction is stopped by adding 2M sulphuric acid (10 μl per well) and the absorbance read at 450 nm to quantify the amount of peptide bound. The inhibitory activity of peptides is obtained by plotting absorbance against concentration.
The purified HLA-DR4Dw4 may be obtained as follows:
(i) Expression of HLA-DR in the Baculovirus System
The expression of recombinant proteins in insect cells from baculovirus vectors is an established procedure to obtain high yields of recombinant protein [Luckow, V A & Summers, M D, 1988, Biotechnology, 6, 47-551]. To enable the expression of the heterodimeric HLA-DR, eg. HLA-DR4Dw4, from a single recombinant baculovirus vector (as opposed to having separate recombinant viruses for the α and β chains and then doing a co-infection), a double-recombinant baculovirus is constructed which carries both the α and β chains.
A cDNA encoding the sequence of the α polypeptide is cloned into the transfer vector pacYM1 [Matsuura, Y; Possee, R D; Overton, H A & Bishop, D H L, 1987, J. Gen. […] The molecular genetic techniques used to construct the recombinant vectors are likewise readily available in the literature and are most fully described by Sambrook, J; Fritsch, E F & Maniatis T, (1989) [Molecular Cloning. […]
To create the double-recombinant baculovirus, a cDNA encoding the β chain is cloned into the transfer vector pAcUW1 [Weyer, U; Knight, S & Possee, R D, 1990, J. Gen. […] Double-recombinant viruses are detected by spotting insect cells, infected with randomly picked viruses from the transfection, onto membranes and reacting them with a monoclonal antibody, e.g. L243, which specifically recognises the HLA-DR heterodimer. Binding of the antibody to Sf21 insect cells is detected using standard flow cytometry techniques, readily available in the literature. […]

| Substance | loss due to degradation on extrusion [1] | concentration showing significant binding to HLA-DR4Dw4 in Test A (HLA-DR4Dw4) [µM] |
| --- | --- | --- |
| Phv-Ala-Arg-Ala-IIb-Ala-Arg-Ala-Papa-NH2 [Example 23] | minimal loss due to degradation on extrusion | < 0.1 |
| Phv-Arg-Ala-Ala-Ala-Val-IIb-Ala-Pip-NH2 [Example 5] | minimal loss due to degradation on extrusion | < 0.1 |
| Phv-Gap(Me)4 -Ala-Ala-Ala-Thr-IIb-Ala-Papa-NH2 [Example 16] | minimal loss due to degradation on extrusion | < 0.1 |
